Assay results reported in PubChem BioAssay AID248 (DTP/NCI, 2004).
Toxic doses and inconclusive results are not listed. Cut-off read from the data, not from the text of the source: active = T/C of 150% or more; inactive = T/C below 125%.

System: L1210 leukemia ip in BDF1 mice, survival T/C
Experiment: NCI In Vivo Anticancer Drug Screen. Data for tumor model L1210 Leukemia (intraperitoneal) in B6D2F1 (BDF1) mice
Settings: endpoint: mean survival time, higher = longer survival
How it was run: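 Mice bearing the transplanted tumor received compound or vehicle. Survival of the treated group was divided by that of the vehicle-treated control group to give the ratio.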

[1] = dose: 100.0 mg/kg/injection, schedule: Q01DX009 (ip), vehicle: saline
[2] = dose: 200.0 mg/kg/injection, schedule: Q01DX009 (ip), vehicle: saline
[3] = dose: 400.0 mg/kg/injection, schedule: Q01DX009 (ip), vehicle: saline
[4] = dose: 100.0 mg/kg/injection, schedule: Q01DX001 (ip), vehicle: saline
[5] = dose: 100.0 mg/kg/injection, schedule: Q04DX003 (ip), vehicle: saline
[6] = dose: 200.0 mg/kg/injection, schedule: Q01DX001 (ip), vehicle: saline
[7] = dose: 200.0 mg/kg/injection, schedule: Q04DX003 (ip), vehicle: saline
[8] = dose: 400.0 mg/kg/injection, schedule: Q01DX001 (ip), vehicle: saline
[9] = dose: 400.0 mg/kg/injection, schedule: Q04DX003 (ip), vehicle: saline
[10] = dose: 100.0 mg/kg/injection, schedule: Q04DX002 (ip), vehicle: Klucel (hydroxypropylcellulose) (HPC)
[11] = dose: 200.0 mg/kg/injection, schedule: Q04DX002 (ip), vehicle: Klucel (hydroxypropylcellulose) (HPC)
[12] = dose: 400.0 mg/kg/injection, schedule: Q04DX002 (ip), vehicle: Klucel (hydroxypropylcellulose) (HPC)
[13] = dose: 12.5 mg/kg/injection, schedule: Q01DX009 (ip), vehicle: saline with Tween-80
[14] = dose: 50.0 mg/kg/injection, schedule: Q01DX009 (ip), vehicle: saline with Tween-80
[15] = dose: 100.0 mg/kg/injection, schedule: Q01DX009 (ip), vehicle: Klucel (hydroxypropylcellulose) (HPC)
[16] = dose: 200.0 mg/kg/injection, schedule: Q01DX009 (ip), vehicle: Klucel (hydroxypropylcellulose) (HPC)
[17] = dose: 400.0 mg/kg/injection, schedule: Q01DX009 (ip), vehicle: Klucel (hydroxypropylcellulose) (HPC)

Measured: T/C

CN(CCOS(=O)(=O)O)CCOS(=O)(=O)O
inactive: dose: 37.5 mg/kg/injection, schedule: Q01DX009 (ip), vehicle: saline 98 % of control | dose: 75.0 mg/kg/injection, schedule: Q01DX009 (ip), vehicle: saline 98 % of control | dose: 75.0 mg/kg/injection, schedule: Q04DX003 (ip), vehicle: saline 102 % of control | dose: 150.0 mg/kg/injection, schedule: Q01DX009 (ip), vehicle: saline 95 % of control | dose: 150.0 mg/kg/injection, schedule: Q04DX003 (ip), vehicle: saline 100 % of control | dose: 300.0 mg/kg/injection, schedule: Q04DX003 (ip), vehicle: saline 96 % of control

CC(=O)c1ccc(OCc2ccccc2)cc1O
inactive: [1] 111 % of control | [2] 100 % of control | [3] 100 % of control

O=[N+]([O-])c1nc2ccccc2[nH]1
inactive: dose: 100.0 mg/kg/injection, schedule: Q01DX001 (ip), vehicle: other 98 % of control

N#Cc1cc(Cl)ccc1Cl
inactive: dose: 100.0 mg/kg/injection, schedule: Q01DX009 (ip), vehicle: gum acacia 100 % of control | dose: 100.0 mg/kg/injection, schedule: Q04DX003 (ip), vehicle: gum acacia 98 % of control | dose: 200.0 mg/kg/injection, schedule: Q01DX009 (ip), vehicle: gum acacia 103 % of control | dose: 200.0 mg/kg/injection, schedule: Q04DX003 (ip), vehicle: gum acacia 95 % of control | dose: 400.0 mg/kg/injection, schedule: Q01DX009 (ip), vehicle: gum acacia 95 % of control | dose: 400.0 mg/kg/injection, schedule: Q04DX003 (ip), vehicle: gum acacia 93 % of control

COC(=O)c1cccc2c1C(Br)C(Br)c1ccccc1-2 (stereo not given)
inactive: [4] 101 % of control | [5] 100 % of control | [6] 98 % of control | [7] 97 % of control | [8] 98 % of control | [9] 94 % of control

COc1ccc(-c2nc(N)nc3c2CN(CCC(=O)O)C3=O)cc1
inactive: [4] 100 % of control | [6] 95 % of control | [8] 94 % of control

Cc1cc(OCC#CCN(C)c2ccccc2)ccc1Cl
inactive: [10] 89 % of control | [11] 99 % of control | [12] 96 % of control

CC(=O)OCC[N+](C)(C)CCCCCCCCCC[N+](C)(C)CCOC(C)=O
inactive: dose: 3.0 mg/kg/injection, schedule: Q01DX009 (ip), vehicle: saline 100 % of control | dose: 6.25 mg/kg/injection, schedule: Q01DX009 (ip), vehicle: saline 89 % of control | dose: 12.5 mg/kg/injection, schedule: Q01DX009 (ip), vehicle: Klucel (hydroxypropylcellulose) (HPC) 97 % of control

COc1cc(C(=O)O)c(C(=O)O)cc1OC
inactive: dose: 12.5 mg/kg/injection, schedule: Q01DX001 (ip), vehicle: Klucel (hydroxypropylcellulose) (HPC) 104 % of control | dose: 12.5 mg/kg/injection, schedule: Q01DX009 (ip), vehicle: saline 101 % of control | dose: 25.0 mg/kg/injection, schedule: Q01DX001 (ip), vehicle: Klucel (hydroxypropylcellulose) (HPC) 108 % of control | dose: 25.0 mg/kg/injection, schedule: Q01DX009 (ip), vehicle: saline 103 % of control | dose: 50.0 mg/kg/injection, schedule: Q01DX001 (ip), vehicle: Klucel (hydroxypropylcellulose) (HPC) 101 % of control | dose: 50.0 mg/kg/injection, schedule: Q01DX009 (ip), vehicle: saline 104 % of control | dose: 75.0 mg/kg/injection, schedule: Q01DX009 (ip), vehicle: Klucel (hydroxypropylcellulose) (HPC) 97 % of control | dose: 115.0 mg/kg/injection, schedule: Q01DX009 (ip), vehicle: Klucel (hydroxypropylcellulose) (HPC) 100 % of control | dose: 170.0 mg/kg/injection, schedule: Q01DX009 (ip), vehicle: Klucel (hydroxypropylcellulose) (HPC) 100 % of control | dose: 400.0 mg/kg/injection, schedule: Q01DX001 (ip), vehicle: Klucel (hydroxypropylcellulose) (HPC) 88 % of control

COC(=O)C1=CCC=CC1
inactive: dose: 100.0 mg/kg/injection, schedule: Q04DX003 (ip), vehicle: saline with Tween-80 102 % of control | dose: 200.0 mg/kg/injection, schedule: Q04DX003 (ip), vehicle: saline with Tween-80 96 % of control | dose: 400.0 mg/kg/injection, schedule: Q04DX003 (ip), vehicle: saline with Tween-80 93 % of control

Cc1nc2nc(N)[nH]c(=O)c2[nH]c1=O
inactive: [1] 89 % of control | [5] 100 % of control | [2] 88 % of control | [7] 96 % of control | [9] 96 % of control

N#CC1(C#N)C2C=CC(C2)C1(C#N)C#N
inactive: dose: 6.25 mg/kg/injection, schedule: Q01DX009 (ip), vehicle: saline with Tween-80 97 % of control | [13] 97 % of control

CC(=O)Nc1ccc2c(ccc3cccc[n+]32)c1
inactive: dose: 10.0 mg/kg/injection, schedule: Q01DX001 (ip), vehicle: saline 93 % of control | dose: 20.0 mg/kg/injection, schedule: Q01DX001 (ip), vehicle: saline 98 % of control

Clc1ccc(C#CP(C#Cc2ccc(Cl)cc2)C#Cc2ccc(Cl)cc2)cc1
inactive: [14] 88 % of control | dose: 100.0 mg/kg/injection, schedule: Q01DX009 (ip), vehicle: saline with Tween-80 103 % of control

S=C(N/N=C/c1ccc2c(c1)CCC2)Nc1ccccc1
inactive: dose: 100.0 mg/kg/injection, schedule: Q04DX003 (ip), vehicle: Klucel (hydroxypropylcellulose) (HPC) 103 % of control | dose: 200.0 mg/kg/injection, schedule: Q04DX003 (ip), vehicle: Klucel (hydroxypropylcellulose) (HPC) 92 % of control | dose: 400.0 mg/kg/injection, schedule: Q04DX003 (ip), vehicle: Klucel (hydroxypropylcellulose) (HPC) 100 % of control

CCCCOC(=O)c1ccc(NC(=O)Nc2cc(C(F)(F)F)ccc2Cl)cc1
inactive: [15] 107 % of control | [16] 113 % of control | [17] 94 % of control

Nc1ccccc1Sc1ccc2c3c(cccc13)C(=O)N(c1ccccc1)C2=O
inactive: dose: 100.0 mg/kg/injection, schedule: Q04DX002 (ip), vehicle: saline with Tween-80 87 % of control | dose: 400.0 mg/kg/injection, schedule: Q04DX002 (ip), vehicle: saline with Tween-80 94 % of control

CCOC(=O)CN(C)c1ccccc1
inactive: dose: 50.0 mg/kg/injection, schedule: Q01DX001 (ip), vehicle: carboxymethylcellulose (CMC) 104 % of control | dose: 100.0 mg/kg/injection, schedule: Q01DX001 (ip), vehicle: carboxymethylcellulose (CMC) 107 % of control | dose: 200.0 mg/kg/injection, schedule: Q01DX001 (ip), vehicle: carboxymethylcellulose (CMC) 93 % of control | dose: 400.0 mg/kg/injection, schedule: Q01DX001 (ip), vehicle: carboxymethylcellulose (CMC) 107 % of control

Cc1ccc(NCCN2CCCCC2)c2c(=O)c3ccccc3sc12
inactive: [1] 110 % of control | [2] 96 % of control | [3] 107 % of control

CC(=O)NC(CC(C)C)C(=O)O (stereo not given)
inactive: dose: 25.0 mg/kg/injection, schedule: Q04DX002 (ip), vehicle: saline 96 % of control | dose: 50.0 mg/kg/injection, schedule: Q04DX002 (ip), vehicle: saline 101 % of control | dose: 100.0 mg/kg/injection, schedule: Q04DX002 (ip), vehicle: saline 101 % of control | dose: 200.0 mg/kg/injection, schedule: Q04DX002 (ip), vehicle: saline 90 % of control | dose: 400.0 mg/kg/injection, schedule: Q04DX002 (ip), vehicle: saline 108 % of control

COCCCNC(=S)C(=S)NCCCOC
inactive: [10] 97 % of control | [11] 107 % of control

O=C(Nc1cccc(C(F)(F)F)c1)Nc1nccs1
inactive: [15] 100 % of control | [10] 94 % of control | [16] 115 % of control | [11] 108 % of control | [17] 92 % of control | [12] 89 % of control

CCOC(=O)c1ccc(N(CC(N)O)S(=O)(=O)c2ccc(C)cc2)cc1 (stereo not given)
inactive: [13] 96 % of control | dose: 25.0 mg/kg/injection, schedule: Q01DX009 (ip), vehicle: saline with Tween-80 98 % of control | [14] 98 % of control

C[N+](C)(C)CC#N
inactive: [5] 95 % of control | [7] 95 % of control

O=C(Nc1ccccc1)Oc1ccc(OC(=O)Nc2ccccc2)c(Cl)c1
inactive: dose: 100.0 mg/kg/injection, schedule: Q04DX002 (ip), vehicle: saline + alcohol 92 % of control | dose: 200.0 mg/kg/injection, schedule: Q04DX002 (ip), vehicle: saline + alcohol 92 % of control
